Test results published in EP0430983B1, “USE OF CASTANOSPERMINE AS AN ANTI-INFLAMMATORY AND IMMUNOSUPPRESSANT AGENT” (THE AUSTRALIAN NATIONAL UNIVERSITY, priority 1988, dated 1990).
“And” between values parts separate entries of the source, which are not always exact repeats. Identical values can stand only once.

Assays:
passive EAE = test: Passively induced experimental allergic encephalomyelitis (passive EAE), clinical grading and CNS histology; type: in vivo, Lewis (RT-1') rats; conditions: for protection against clinical EAE: osmotic pump implanted at time of cell transfer; for mean clinical score: score out of possible 5 ± standard errors
[1] = test system: Delayed hypersensitivity (DTH); test: Delayed hypersensitivity (DTH) to sheep red blood cells, foot swelling; type: in vivo, C57BL mice; conditions: CS ip every 4 hours from footpad testing, total 300 mg/kg/mouse over 24 hrs; 5 mice/group; control group 33%
Experimental: C57BL mice were given 10⁸ sheep red blood cells (SRBC) intravenously. Five days later 10⁵ SRBC in a volume of […] was injected into the left hind footpad and […] saline into the right. Castanospermine was given every 4 hours ip beginning at the time of footpad testing. Total dose of CS over 24 hrs was 300 mg/kg/mouse. Control mice were given saline every 4 hours, and 5 mice/group were used in both test and control groups.

[2] = Preliminary toxicity studies; type: in vivo; conditions: 500 mg/kg/day for 7 days; animals observed for a 6 week period after treatment; data not shown
renal allografts = test: Renal allograft survival; type: in vivo, DA rats; conditions: pump; for No. of rats surviving more than 14 days: DA rats with (DA/LEW) renal allografts; for No. of days of Survival: the rat surviving more than 14 days
Excerpt: One kidney from each rat was replaced with a donor kidney, after which the remaining original rat kidney was removed. The results are set out in Table 5 below: Table 5

[3] = test system: passively induced adjuvant arthritis; test: Passively induced adjuvant arthritis, change in foot volume; type: in vivo, (DAxLewis)F₁ rats; conditions: for % Δ in foot volume: 350 mg/kg/day s.c. osmotic pump from cell transfer, individual rats, 350 mg/kg/day
Experimental: (DAxLewis)F₁ rats were immunized with 3mg M.butyricum in light mineral oil injected intradermally in both hind feet. Ten days later spleens were removed and made into a single cell suspension in RPMI containing 5% fetal calf serum, 200mM L Glutamine, 5 x 10⁻ ⁵M 2-ME, penicillin and streptomycin. Cells were adjusted to 2 x 10⁶ cells/ml, and cultured in 50ml media in 75mm culture flasks. ConA was added at 2µg/ml and cultures incubated for 72hrs at 37°C in an atmosphere of 10% CO₂, 7% O₂ and the balance N₂. Cells were then washed and transferred at 50 x 10⁶ or 60 x 10⁶ cells/rat i.v. into 10 weeks old male (DAxLewis)F₁.
Castanospermine was put in osmotic pumps (Alza Corp.) which delivered 5µl/hr for 14 days. Pumps were implanted subcutaneously at the time of cell transfer. Rats received 350mg/kg/day of castanospermine.
Hind feet of rats were measured in 4 diameters beginning the day of cell transfer. The measurements are averaged and expressed as % change in volume of feet.
Two experiments have been performed both treating rats with 350mg/kg/day castanospermine beginning the day of cell transfer.

pancreatic islets = test: Transplantation of allogeneic pancreatic islets, graft rejection by blood glucose; type: in vivo, CBA mice
Experimental: Donor mice were Balb/c (H2^d) and recipients were CBA (H2^k). Donor pancreatic islets were prepared using standard techniques. Approximately 400 islets were isolated from 10 donor mice. These freshly isolated islets, in groups of 50, were placed into CBA blood clots and these were placed under the kidney capsule of CBA mice which were diabetic (blood glucose 20mM/litre).
Two recipients were implanted (subcutaneously) with miniosmotic pumps containing CS at the time of islet transplantation. These pumps delivered CS at a dose of 300 mg/kg/mouse/day for a period of 14 days. Two control mice were sham operated.
Blood samples (10µl) were taken daily and assayed for blood glucose using an automatic analyser (Beckman Glucose Analyzer 2).
All transplant recipients became normoglycaemic within 24 hours indicating successful transplantation of all of the grafts. Rejection of grafts was assumed to occur when animals became hyperglycaemic. Control animals rejected on days 9 and 12.

[4] = Table 1, CS 100 mg/kg/day, s.c. miniosmotic pump at time of cell transfer
[5] = Table 1, CS 200 mg/kg/day, s.c. miniosmotic pump at time of cell transfer

## O[C@H]1[C@H](O)[C@@H](O)CN2CC[C@H](O)[C@H]12 [CS, Castanospermine]
Passive EAE; 100 mg/kg/day
  protection against clinical EAE: no protective effect
Passive EAE; 200 mg/kg/day
  protection against clinical EAE: only partial protection
Passive EAE; 300 mg/kg/day from cell transfer, rats killed at day 8, compared with untreated rats
  number of inflammatory lesions in CNS tissues (histology): approximately the same number of inflammatory lesions as untreated rats
Passive EAE; 300 mg/kg/day
  protection against clinical EAE: complete protection
Passive EAE; [4]
  mean day of onset: 4±0
  mean clinical score: 4.0±0
Passive EAE; Table 1, CS 100 mg/kg/day, s.c. miniosmotic pump placed at time of cell transfer
  animals with EAE: 4/4
Passive EAE; [5]
  mean day of onset: 5±0
  mean clinical score: 2.0±0
Passive EAE; Table 1, CS 200 mg/kg/day, s.c. miniosmotic pump placed at time of cell transfer
  animals with EAE: 4/4
Passive EAE; Table 1, CS 300 mg/kg/day, s.c. miniosmotic pump placed at time of cell transfer
  animals with EAE: 0/4
Passive EAE; Table 2, convalescent rats (compromised blood-brain barrier), CS 300 mg/kg/day, s.c. miniosmotic pump at time of secondary cell transfer
  animals with EAE: 0/4
Passive EAE; Table 2, naive rats, CS 300 mg/kg/day, s.c. miniosmotic pump at time of cell transfer
  animals with EAE: 0/4
Passive EAE; Table 3, experiment 1, CS 150 mg/kg i.p., 12 hourly, initiated on day 4 (before clinical signs), for 3 days
  animals with EAE: 0/3
Passive EAE; Table 3, experiment 2, CS 150 mg/kg i.p., 12 hourly, initiated on day 4 (after onset of signs)
  animals with EAE: 3/3
Passive EAE; Table 3, experiment 2, CS 150 mg/kg i.p., 12 hourly, initiated on day 4
  mean clinical score: 4±0
Passive EAE; Table 3, experiment 3, CS 300 mg/kg osmotic pump, initiated on day 4 (after onset of signs)
  animals with EAE: 5/5
Passive EAE; Table 3, experiment 3, CS 300 mg/kg osmotic pump, initiated on day 4
  mean clinical score: 4±0
Passive EAE; exp.1, two 150 mg/kg i.p. injections daily from 4 days after cell transfer for 3 days, signs in untreated animals not apparent until day 6
  clinical signs of EAE with delayed treatment: did not develop clinical signs of EAE
Passive EAE; exp.3, osmotic pumps implanted on day 4 after cell transfer, all animals showed mild clinical signs on day 4
  clinical signs of EAE with delayed treatment: failed to modify subsequent disease expression
Passive EAE; rats recovered from one episode, pump delivering 300 mg/kg/day on the day of secondary transfer
  second episode of passively induced EAE: did not develop a second episode of the disease
[1]
  increase in foot swelling: 11%
[2]
  toxic effect: no apparent toxic effect
Renal allografts; 100mg/kg, 9 rats
  No. of rats surviving more than 14 days: 1
Renal allografts; 100mg/kg
  No. of days of Survival: 100 days
Renal allografts; 250mg/kg, 7 rats
  No. of rats surviving more than 14 days: 1
Renal allografts; 250mg/kg
  No. of days of Survival: 33 days
[3]; Exp 1, 50 x 10^6 cells, Day 7
  % Δ in foot volume: -5% and 5% and 0% and +12%
[3]; Exp 1, 50 x 10^6 cells, Day 14
  % Δ in foot volume: -1% and 0% and +9% and +4%
[3]; Exp 1 and Exp 2, 350 mg/kg/day from cell transfer
  inflammation of feet: In no case did any of the CS treated rats show inflammation
[3]; Exp 2, 60 x 10^6 cells, Day 7
  % Δ in foot volume: -5% and -7% and -3% and +3%
[3]; Exp 2, 60 x 10^6 cells, Day 14
  % Δ in foot volume: -8% and -18% and -14% and -1%
[3]; Exp 2, pumps removed on day 15, animals followed out to day 28+
  swelling and inflammation after end of treatment: remained normal
Pancreatic islets; Balb/c islets in diabetic CBA mice, 300 mg/kg/mouse/day s.c. miniosmotic pump for 14 days, one mouse, controls rejected on days 9 and 12
  day of graft rejection (hyperglycaemia): 19 days
Pancreatic islets; other CS treated mouse, whose miniosmotic pump was found not to have delivered its CS payload
  day of graft rejection (hyperglycaemia): 12 days
